Experiments:
[1] = biological target: T1, AKT1 WT (Homo sapiens, UniProt P31749); assay: Live cell target engagement by NanoBRET competitive probe displacement, AKT1 WT; type: binding; details: transfected HEK293 cells, 2 h at 37° C., read-out: AKT1 WT IC50: GeoMean IC50
T1 construct: expressed in transfected cells; host or cells: HEK293

[2] = biological target: T2, AKT1 E17K (Homo sapiens, UniProt P31749, E17K); assay: Live cell target engagement by NanoBRET competitive probe displacement, AKT1 E17K; type: binding; details: transfected HEK293 cells, 2 h at 37° C., read-out: AKT1 E17K IC50: GeoMean IC50
T2 construct: expressed in transfected cells; host or cells: HEK293
T2 sequence (P31749 whole entry E17K): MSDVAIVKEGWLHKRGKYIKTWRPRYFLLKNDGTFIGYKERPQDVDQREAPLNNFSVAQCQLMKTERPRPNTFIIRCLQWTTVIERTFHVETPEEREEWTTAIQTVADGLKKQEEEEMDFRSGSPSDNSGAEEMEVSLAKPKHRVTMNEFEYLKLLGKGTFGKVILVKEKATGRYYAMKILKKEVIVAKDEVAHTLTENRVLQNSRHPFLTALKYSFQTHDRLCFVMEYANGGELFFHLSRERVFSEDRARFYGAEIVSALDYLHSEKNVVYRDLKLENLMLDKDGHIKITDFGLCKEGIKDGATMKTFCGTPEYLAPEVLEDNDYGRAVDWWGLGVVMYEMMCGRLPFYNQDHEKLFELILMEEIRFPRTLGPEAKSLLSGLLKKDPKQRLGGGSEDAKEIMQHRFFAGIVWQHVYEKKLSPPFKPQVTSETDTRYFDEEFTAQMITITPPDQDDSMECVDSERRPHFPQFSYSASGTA

[3] = biological target: T3, AKT2 (Homo sapiens, UniProt P31751); assay: Live cell target engagement by NanoBRET competitive probe displacement, AKT2; type: binding; details: transfected HEK293 cells, 2 h at 37° C., read-out: AKT2 IC50: GeoMean IC50
T3 construct: expressed in transfected cells; host or cells: HEK293
T3 sequence (P31751 whole entry): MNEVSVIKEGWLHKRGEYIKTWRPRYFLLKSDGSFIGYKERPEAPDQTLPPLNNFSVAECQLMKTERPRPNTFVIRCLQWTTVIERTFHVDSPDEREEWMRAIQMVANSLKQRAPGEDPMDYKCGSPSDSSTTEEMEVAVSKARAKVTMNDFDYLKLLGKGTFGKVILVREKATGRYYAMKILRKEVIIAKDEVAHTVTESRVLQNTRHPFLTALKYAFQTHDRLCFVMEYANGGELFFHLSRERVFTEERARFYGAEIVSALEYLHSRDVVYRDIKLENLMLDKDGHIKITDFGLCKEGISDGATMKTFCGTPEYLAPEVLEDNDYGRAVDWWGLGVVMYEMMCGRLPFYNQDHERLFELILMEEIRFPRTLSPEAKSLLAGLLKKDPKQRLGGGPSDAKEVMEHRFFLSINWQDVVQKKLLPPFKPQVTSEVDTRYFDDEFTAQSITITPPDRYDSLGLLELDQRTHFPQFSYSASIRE

[4] = tested on: LAPC4 prostate cancer cells, which express the AKT1 E17K allele; assay: Antiproliferative effects in LAPC4 cells (CellTiter Glo, 72 h); type: cell-based; details: Homo sapiens, LAPC4, 72 h, read-out: LAPC4 proliferation IC50: GeoMean IC50
Outline: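 Cells grown in IMDM with 12% FBS, seeded at 1,000 cells/well and treated with compound dilutions in DMSO for 72 h. Intracellular ATP read by luminescence. IC50 from a log(inhibitor) vs. response Hill fit.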

T1 sequence (P31749 whole entry): as the sequence (P31749 whole entry E17K) above, with K17E counted along it

Row | Structure (SMILES) | IC50 [1] [nM] | IC50 [2] [nM] | IC50 [3] [nM] | IC50 [4] [nM]
1 | COc1cc2nc(-c3cccnc3N)n(-c3ccc4c(c3)CC[C@@H]4NC(=O)c3ccc(O)c(C=O)c3)c2nc1-n1cccn1 [Example 215, N-[(1S)-5-[2-(2-aminopyridin-3-yl)-6-methoxy-5-(pyrazol-1-yl)imidazo[4,5-b]pyridin-3-yl]-2,3-dihydro-1H-inden-1-yl]-3-formyl-4-hydroxybenzamide] | 100 to 2000 | 10 to 100 | 100 to 2000 | 100 to 2000
2 | Nc1ncccc1-c1nc2ccc(-n3nccn3)nc2n1-c1ccc2c(c1)CC[C@@H]2NC(=O)c1ccc(O)c(C=O)c1 [Example 91, N-[(1S)-5-[2-(2-aminopyridin-3-yl)-5-(1,2,3-triazol-2-yl)imidazo[4,5-b]pyridin-3-yl]-2,3-dihydro-1H-inden-1-yl]-3-formyl-4-hydroxybenzamide] | 10 to 100 | 10 to 100 | 100 to 2000 | 10 to 100
3 | [N-]=[N+]=Nc1c(C(=O)N[C@H]2CCc3cc(-n4c(-c5cccnc5N)nc5ccc(-n6cccn6)nc54)ccc32)cc(C=O)c(O)c1F [Example 218, (S)—N-(5-(2-(2-aminopyridin-3-yl)-5-(1H-pyrazol-1-yl)-3H-imidazo[4,5-b]pyridin-3-yl)-2,3-dihydro-1H-inden-1-yl)-2-azido-3-fluoro-5-formyl-4-hydroxybenzamide] | 100 to 2000 | 100 to 2000 | 100 to 2000 | 100 to 2000
4 | Nc1ncccc1-c1nc2c(OC(F)F)cc(-n3cccn3)nc2n1-c1ccc2c(c1)CC[C@@H]2NC(=O)c1ccc(O)c(C=O)c1 [Example 225, N-[(1S)-5-[2-(2-aminopyridin-3-yl)-7-(difluoromethoxy)-5-(pyrazol-1-yl)imidazo[4,5-b]pyridin-3-yl]-2,3-dihydro-1H-inden-1-yl]-3-formyl-4-hydroxybenzamide] | 10 to 100 | 10 to 100 | 100 to 2000 | 10 to 100
5 | Nc1ncccc1-c1nc2ccc(-c3cnn(C4CC4)c3)nc2n1-c1ccc2c(c1)CC[C@@H]2NC(=O)c1ccc(O)c(C=O)c1 [Example 62, N-[(1S)-5-[2-(2-aminopyridin-3-yl)-5-(1-cyclopropylpyrazol-4-yl)imidazo[4,5-b]pyridin-3-yl]-2,3-dihydro-1H-inden-1-yl]-3-formyl-4-hydroxybenzamide] | 10 to 100 | 10 to 100 | 100 to 2000 | 100 to 2000
6 | C#Cc1ccc(C(=O)N[C@H]2CCc3cc(-n4c(-c5cccnc5N)nc5ccc(-n6cccn6)nc54)ccc32)cc1C=O [Example 155, N-[(1S)-5-[2-(2-aminopyridin-3-yl)-5-(pyrazol-1-yl)imidazo[4,5-b]pyridin-3-yl]-2,3-dihydro-1H-inden-1-yl]-4-ethynyl-3-formylbenzamide] | 10 to 100 | 10 to 100 | 10 to 100 | ≥ 2000
7 | Nc1ncccc1-c1nc2ccc(-c3cscn3)nc2n1-c1ccc2c(c1)CC[C@@H]2NC(=O)c1ccc(O)c(C=O)c1 [Example 88, N-[(1S)-5-[2-(2-aminopyridin-3-yl)-5-(1,3-thiazol-4-yl)imidazo[4,5-b]pyridin-3-yl]-2,3-dihydro-1H-inden-1-yl]-3-formyl-4-hydroxybenzamide] | 10 to 100 | 10 to 100 | 100 to 2000 | 10 to 100
8 | Nc1ncccc1-c1nc2ccc(-n3ccc(-n4cccn4)n3)nc2n1-c1ccc2c(c1)CC[C@@H]2NC(=O)c1ccc(O)c(C=O)c1 [Example 117, (S)—N-(5-(5-(1′H-[1,3′-bipyrazol]-1′-yl)-2-(2-aminopyridin-3-yl)-3H-imidazo[4,5-b]pyridin-3-yl)-2,3-dihydro-1H-inden-1-yl)-3-formyl-4-hydroxybenzamide] | 10 to 100 | 10 to 100 | 100 to 2000 | 10 to 100
9 | Nc1ncccc1-c1nc2c(Cl)cc(-n3cccn3)nc2n1-c1ccc2c(c1)CC[C@@H]2NC(=O)c1ccc(O)c(C=O)c1 [Example 196, (S)—N-(5-(2-(2-aminopyridin-3-yl)-7-chloro-5-(1H-pyrazol-1-yl)-3H-imidazo[4,5-b]pyridin-3-yl)-2,3-dihydro-1H-inden-1-yl)-3-formyl-4-hydroxybenzamide] | 10 to 100 | 10 to 100 | 100 to 2000 | 100 to 2000
10 | Nc1ncccc1-c1nc2c(C(F)F)cc(-n3cccn3)nc2n1-c1ccc2c(c1)CC[C@@H]2NC(=O)c1ccc(O)c(C=O)c1 [Example 245, N-[(1S)-5-[2-(2-aminopyridin-3-yl)-7-(difluoromethyl)-5-(pyrazol-1-yl)imidazo[4,5-b]pyridin-3-yl]-2,3-dihydro-1H-inden-1-yl]-3-formyl-4-hydroxybenzamide] | 10 to 100 | < 10 | 100 to 2000 | 10 to 100
11 | Nc1ncccc1-c1nc2ccc(-n3cccn3)nc2n1-c1ccc2c(c1)CC[C@@H]2N1CCc2cc(O)c(C=O)cc2C1=O [Example 177, 2-[(1S)-5-[2-(2-aminopyridin-3-yl)-5-(pyrazol-1-yl)imidazo[4,5-b]pyridin-3-yl]-2,3-dihydro-1H-inden-1-yl]-6-hydroxy-1-oxo-3,4-dihydroisoquinoline-7-carbaldehyde] | ≥ 2000 | ≥ 2000 | 100 to 2000 | ≥ 2000
12 | C#Cc1cc(C(=O)N[C@H]2CCc3cc(-n4c(-c5cccnc5N)nc5ccc(-n6cccn6)nc54)ccc32)cc(C=O)c1O [Example 101, N-[(1S)-5-[2-(2-aminopyridin-3-yl)-5-(pyrazol-1-yl)imidazo[4,5-b]pyridin-3-yl]-2,3-dihydro-1H-inden-1-yl]-3-ethynyl-5-formyl-4-hydroxybenzamide] | 10 to 100 | 10 to 100 | 100 to 2000 | 100 to 2000
13 | CCc1ccc2nc(-c3cccnc3N)n(-c3ccc4c(c3)CC[C@@H]4NC(=O)c3ccc(O)c(C=O)c3)c2n1 [Example 43, (S)—N-(5-(2-(2-aminopyridin-3-yl)-5-ethyl-3H-imidazo[4,5-b]pyridin-3-yl)-2,3-dihydro-1H-inden-1-yl)-3-formyl-4-hydroxybenzamide] | 100 to 2000 | 10 to 100 | ≥ 2000 | 100 to 2000
14 | Nc1ncccc1-c1nc2ccc(-n3ncc4cccnc43)nc2n1-c1ccc2c(c1)CC[C@@H]2NC(=O)c1cc(C=O)c(O)c(F)c1F [Example 172, (S)—N-(5-(2-(2-aminopyridin-3-yl)-5-(1H-pyrazolo[3,4-b]pyridin-1-yl)-3H-imidazo[4,5-b]pyridin-3-yl)-2,3-dihydro-1H-inden-1-yl)-2,3-difluoro-5-formyl-4-hydroxybenzamide] | 10 to 100 | 10 to 100 | 100 to 2000 | 10 to 100
15 | Cn1c(=O)[nH]c2c(C=O)cc(C(=O)N[C@H]3CCc4cc(-n5c(-c6cccnc6N)nc6ccc(-n7cccn7)nc65)ccc43)cc21 [Example 170, (S)—N-(5-(2-(2-aminopyridin-3-yl)-5-(1H-pyrazol-1-yl)-3H-imidazo[4,5-b]pyridin-3-yl)-2,3-dihydro-1H-inden-1-yl)-7-formyl-3-methyl-2-oxo-2,3-dihydro-1H-benzo[d]imidazole-5-carboxamide] | < 10 | < 10 | 100 to 2000 | 10 to 100
16 | CN(C)C(=O)Nc1ccc(C(=O)N[C@H]2CCc3cc(-n4c(-c5cccnc5N)nc5ccc(-n6cccn6)nc54)ccc32)cc1C=O [Example 104, N-[(1S)-5-[2-(2-aminopyridin-3-yl)-5-(pyrazol-1-yl)imidazo[4,5-b]pyridin-3-yl]-2,3-dihydro-1H-inden-1-yl]-4-[(dimethylcarbamoyl)amino]-3-formylbenzamide] | 10 to 100 | < 10 | 100 to 2000 | < 10
17 | Nc1ncccc1-c1nc2ccc(-c3ccccc3)nc2n1-c1ccc2c(c1)CC[C@@H]2NC(=O)C1(c2cnc(C=O)c(O)c2)CC1 [Example 12, N-[(1S)-5-[2-(2-aminopyridin-3-yl)-5-phenylimidazo[4,5-b]pyridin-3-yl]-2,3-dihydro-1H-inden-1-yl]-1-(6-formyl-5-hydroxypyridin-3-yl)cyclopropane-1-carboxamide] | 100 to 2000 | 100 to 2000 | 100 to 2000 | ≥ 2000
18 | Nc1ncccc1-c1nc2ccc(-c3ccccc3)nc2n1-c1ccc2c(c1)CC[C@@H]2NC(=O)c1ccc(C=O)c(O)c1 [Example 30, N-[(1S)-5-[2-(2-aminopyridin-3-yl)-5-phenylimidazo[4,5-b]pyridin-3-yl]-2,3-dihydro-1H-inden-1-yl]-4-formyl-3-hydroxybenzamide] | 100 to 2000 | 100 to 2000 | 100 to 2000 | ≥ 2000
19 | Nc1ncccc1-c1nc2ccc(-n3cccn3)nc2n1-c1ccc2c(c1)CC[C@@H]2n1cnc2cc(O)c(C=O)cc2c1=O [Example 184, 3-[(1S)-5-[2-(2-aminopyridin-3-yl)-5-(pyrazol-1-yl)imidazo[4,5-b]pyridin-3-yl]-2,3-dihydro-1H-inden-1-yl]-7-hydroxy-4-oxoquinazoline-6-carbaldehyde] | 10 to 100 | 10 to 100 | 100 to 2000 | 10 to 100
20 | CC(=O)Nc1c(F)cc(C(=O)N[C@H]2CCc3cc(-n4c(-c5cccnc5N)nc5ccc(-c6ccccc6)nc54)ccc32)cc1C=O [Example 64, N-[(1S)-5-[2-(2-aminopyridin-3-yl)-5-phenylimidazo[4,5-b]pyridin-3-yl]-2,3-dihydro-1H-inden-1-yl]-4-acetamido-3-fluoro-5-formylbenzamide] | 10 to 100 | 10 to 100 | 10 to 100 | 10 to 100
